# Measured values as given in patent US11306079B2, “3-(5-amino-pyrazin-2-yl)-benzenesulfonamide derivatives and related compounds as PI3K-gamma kinase inhibitors” (Incyte Corporation, priority 2017, dated 2022).
# Counter-ions that a name gives are not always drawn.
# Experiments:
# [1] = target: PI3Kγ (p110γ) Recombinant Human Protein (Homo sapiens (Human), UniProt P48736); assay: PI3K-γ Scintillation Proximity Assay; assay type: biochemical; details: 20 μM PIP2, 2 μM ATP, 13 nM PI3Kγ, 120 min, room temperature
# Procedure, shortened: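 Recombinant human p110γ (13 nM) phosphorylated 20 μM PIP2 with 2 μM ATP plus [γ-33P]ATP in 20 mM MOPS pH 6.7, 10 mM MgCl2, 5 mM DTT, 0.03% CHAPS, 2% DMSO, 120 min at room temperature. Radiolabelled product was captured on WGA SPA beads and counted. IC50 came from curves of percent solvent-control activity.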
# [2] = target: PI3Kδ (p110δ/p85α) Recombinant Human Protein (Homo sapiens (Human), UniProt O00329); assay: PI3Kδ Scintillation Proximity Assay; assay type: biochemical; details: 20 μM PIP2, 2 μM ATP, 3.4 nM PI3Kδ, 120 min, room temperature
# Procedure, shortened: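 Assay conditions: 2 μM ATP (radiolabelled), 20 μM PIP2, 3.4 nM PI3Kδ, 20 mM MOPS pH 6.7 with 10 mM MgCl2, 5 mM DTT, 0.03% CHAPS, 2 h at room temperature. Signal from bead-captured 33P product; IC50 versus solvent control.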
# [3] = test system: Phosphorylated Ribosomal Protein S6 (RPS6) in THP-1 cells; assay: THP-1 RPS6 ELISA Assay; assay type: cell-based; details: Homo sapiens; serum starved THP-1 cells, 2 hours with compound, 10 nM MCP-1 for 15 minutes, Phospho-RPS6 ELISA; read-out: PI3Kγ_THP1_RPS6_ELISA IC50
# Procedure, shortened: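 Phospho-RPS6 in lysates measured by ELISA at 450 nm, corrected at 540 nm, after MCP-1 challenge (10 nM, 15 min) of THP-1 cells that were starved overnight and exposed to test compound for 2 h at 37° C, 2×10^5 cells/well. Curve fit of percent inhibition gives IC50.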
# PI3Kδ (p110δ/p85α) Recombinant Human Protein, sequence (O00329 whole entry): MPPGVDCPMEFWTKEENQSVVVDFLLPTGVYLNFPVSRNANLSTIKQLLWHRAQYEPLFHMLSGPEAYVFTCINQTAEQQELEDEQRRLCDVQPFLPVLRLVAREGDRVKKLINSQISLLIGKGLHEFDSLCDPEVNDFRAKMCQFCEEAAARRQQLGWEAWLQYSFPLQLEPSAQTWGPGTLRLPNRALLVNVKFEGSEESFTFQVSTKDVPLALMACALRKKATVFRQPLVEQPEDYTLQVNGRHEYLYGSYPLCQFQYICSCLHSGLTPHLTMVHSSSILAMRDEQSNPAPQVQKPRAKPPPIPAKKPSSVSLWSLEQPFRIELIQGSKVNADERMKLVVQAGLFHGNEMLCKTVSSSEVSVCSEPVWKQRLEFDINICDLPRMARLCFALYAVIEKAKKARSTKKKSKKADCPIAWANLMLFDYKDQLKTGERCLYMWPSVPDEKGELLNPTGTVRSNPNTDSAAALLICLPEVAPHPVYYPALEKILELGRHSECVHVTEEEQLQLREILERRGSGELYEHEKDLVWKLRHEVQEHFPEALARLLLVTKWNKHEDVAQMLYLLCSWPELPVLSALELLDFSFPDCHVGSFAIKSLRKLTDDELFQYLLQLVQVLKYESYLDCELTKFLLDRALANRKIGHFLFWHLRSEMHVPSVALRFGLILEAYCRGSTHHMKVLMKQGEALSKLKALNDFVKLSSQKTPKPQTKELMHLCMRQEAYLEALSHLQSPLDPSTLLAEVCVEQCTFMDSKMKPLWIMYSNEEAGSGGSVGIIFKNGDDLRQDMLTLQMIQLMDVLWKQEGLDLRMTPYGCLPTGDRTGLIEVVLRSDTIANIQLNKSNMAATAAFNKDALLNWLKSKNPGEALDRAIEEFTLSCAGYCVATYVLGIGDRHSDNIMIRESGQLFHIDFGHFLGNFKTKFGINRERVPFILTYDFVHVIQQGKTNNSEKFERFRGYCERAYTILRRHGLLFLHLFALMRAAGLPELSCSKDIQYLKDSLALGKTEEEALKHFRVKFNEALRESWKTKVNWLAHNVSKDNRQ
# PI3Kδ (p110δ/p85α) Recombinant Human Protein, sequence (P27986 whole entry partner): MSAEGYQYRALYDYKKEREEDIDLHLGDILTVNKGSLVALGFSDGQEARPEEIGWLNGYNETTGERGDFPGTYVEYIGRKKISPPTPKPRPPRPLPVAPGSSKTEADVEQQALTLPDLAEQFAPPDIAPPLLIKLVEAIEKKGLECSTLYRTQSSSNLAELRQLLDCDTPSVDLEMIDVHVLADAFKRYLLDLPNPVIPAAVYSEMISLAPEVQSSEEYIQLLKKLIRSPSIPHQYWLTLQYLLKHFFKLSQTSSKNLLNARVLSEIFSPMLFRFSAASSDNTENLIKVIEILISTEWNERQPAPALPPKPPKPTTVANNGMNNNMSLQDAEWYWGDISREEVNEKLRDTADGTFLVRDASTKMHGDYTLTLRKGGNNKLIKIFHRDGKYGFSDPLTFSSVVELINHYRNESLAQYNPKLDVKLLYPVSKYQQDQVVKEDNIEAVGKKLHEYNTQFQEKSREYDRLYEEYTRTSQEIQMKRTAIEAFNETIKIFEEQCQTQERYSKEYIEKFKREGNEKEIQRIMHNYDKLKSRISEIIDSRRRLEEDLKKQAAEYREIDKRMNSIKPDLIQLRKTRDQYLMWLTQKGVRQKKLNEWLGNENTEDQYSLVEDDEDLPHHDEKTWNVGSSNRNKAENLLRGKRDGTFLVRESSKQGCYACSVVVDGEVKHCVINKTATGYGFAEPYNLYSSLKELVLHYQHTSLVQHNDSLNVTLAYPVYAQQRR
# PI3Kγ (p110γ) Recombinant Human Protein, sequence (P48736 whole entry): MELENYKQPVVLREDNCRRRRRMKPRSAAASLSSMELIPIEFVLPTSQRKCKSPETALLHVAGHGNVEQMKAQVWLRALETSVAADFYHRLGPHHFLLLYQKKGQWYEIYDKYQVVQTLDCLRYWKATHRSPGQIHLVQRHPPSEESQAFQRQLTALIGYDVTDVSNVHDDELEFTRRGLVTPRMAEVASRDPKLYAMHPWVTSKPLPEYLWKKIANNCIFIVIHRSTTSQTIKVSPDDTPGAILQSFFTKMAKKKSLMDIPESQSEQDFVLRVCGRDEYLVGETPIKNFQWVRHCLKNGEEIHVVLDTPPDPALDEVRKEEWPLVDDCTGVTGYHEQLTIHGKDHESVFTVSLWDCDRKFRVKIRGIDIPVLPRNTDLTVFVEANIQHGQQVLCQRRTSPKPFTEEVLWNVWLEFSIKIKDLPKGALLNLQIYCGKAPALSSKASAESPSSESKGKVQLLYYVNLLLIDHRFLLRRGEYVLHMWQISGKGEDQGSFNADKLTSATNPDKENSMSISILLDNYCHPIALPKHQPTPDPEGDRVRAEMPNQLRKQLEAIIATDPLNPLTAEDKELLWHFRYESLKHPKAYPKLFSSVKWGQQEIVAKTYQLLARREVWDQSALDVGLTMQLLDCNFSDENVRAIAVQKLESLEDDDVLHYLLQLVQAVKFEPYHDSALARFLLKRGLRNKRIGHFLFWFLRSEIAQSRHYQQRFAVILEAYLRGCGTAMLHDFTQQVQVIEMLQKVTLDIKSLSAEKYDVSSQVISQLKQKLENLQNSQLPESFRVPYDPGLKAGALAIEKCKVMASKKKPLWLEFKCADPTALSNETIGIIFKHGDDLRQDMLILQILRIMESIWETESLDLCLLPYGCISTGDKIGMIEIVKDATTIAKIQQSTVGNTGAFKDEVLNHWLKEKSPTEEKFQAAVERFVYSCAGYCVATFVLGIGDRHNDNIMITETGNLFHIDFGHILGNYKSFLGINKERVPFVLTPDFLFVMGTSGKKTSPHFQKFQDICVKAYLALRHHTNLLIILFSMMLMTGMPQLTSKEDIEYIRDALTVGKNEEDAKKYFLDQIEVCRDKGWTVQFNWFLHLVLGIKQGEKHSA
Compound,IC50 [1] [µM],IC50 [2] [µM],IC50 [3] [µM]
"Cc1ccc(S(=O)(=O)NC23COC(CO)(C2)C3)cc1-c1cnc(N)c(-n2cncn2)n1 [Example 27, 3-(5-Amino-6-(1H-1,2,4-triazol-1-yl)pyrazin-2-yl)-N-(1-(hydroxymethyl)-2-oxabicyclo[2.1.1]hexan-4-yl)-4-methylbenzenesulfonamide trifluoroacetate salt]",≤ 0.1,≤ 0.5,≤ 0.5
"CNC(=O)OCC12CC(NS(=O)(=O)c3ccc(C)c(-c4cnc(N)c(-n5cncn5)n4)c3)(C1)C2 [Example 31, (3-(3-(5-Amino-6-(1H-1,2,4-triazol-1-yl)pyrazin-2-yl)-4-methylphenylsulfonamido)bicyclo[1.1.1]pentan-1-yl)methyl Methylcarbamate Trifluoroacetate Salt]",≤ 0.1,≤ 0.5,≤ 0.5
"Cc1ccc(S(=O)(=O)NC23CC(C(=O)NCC(F)(F)F)(C2)C3)cc1-c1cnc(N)c(-n2cncn2)n1 [Example 35, 3-(3-(5-Amino-6-(1H-1,2,4-triazol-1-yl)pyrazin-2-yl)-4-methylphenylsulfonamido)-N-(2,2,2-trifluoroethyl)bicyclo[1.1.1]pentane-1-carboxamide trifluoroacetate salt]",≤ 0.1,≤ 0.5,≤ 1
"[2H]C([2H])([2H])c1ccc(S(=O)(=O)NC23CC(C#N)(C2)C3)cc1-c1cnc(N)c(-c2ccncn2)n1 [Example 79, 3-(5-Amino-6-(pyrimidin-4-yl)pyrazin-2-yl)-N-(3-cyanobicyclo[1.1.1]pentan-1-yl)-4-(methyl-d3)benzenesulfonamide Trifluoroacetate Salt]",≤ 0.1,≤ 0.1,≤ 0.1
"[2H]C([2H])([2H])c1ccc(S(=O)(=O)NC23CCC(O)(C2)C3)cc1-c1cnc(N)c(-c2ccncn2)n1 [Example 80, 3-(5-Amino-6-(pyrimidin-4-yl)pyrazin-2-yl)-N-(4-hydroxybicyclo[2.1.1]hexan-1-yl)-4-(methyl-d3)benzenesulfonamide trifluoroacetate salt]",≤ 0.1,≤ 0.1,≤ 0.1
"[2H]C([2H])([2H])c1ccc(S(=O)(=O)NC23CCC(C#N)(C2)C3)cc1-c1cnc(N)c(-c2cnc(C)o2)n1 [Example 66, 3-(5-Amino-6-(2-methyloxazol-5-yl)pyrazin-2-yl)-N-(4-cyanobicyclo[2.1.1]hexan-1-yl)-4-(methyl-d3)benzenesulfonamide trifluoroacetate salt]",≤ 0.1,≤ 0.1,≤ 0.1
"Cc1ccc(S(=O)(=O)NC23CNC(C2)C3)cc1-c1cnc(N)c(-n2cccn2)n1 [Example 58, 3-(5-Amino-6-(1H-pyrazol-1-yl)pyrazin-2-yl)-N-(2-azabicyclo[2.1.1]hexan-4-yl)-4-methylbenzenesulfonamide trifluoroacetate salt]",≤ 0.1,≤ 0.5,≤ 1
"Cc1ncc(-c2nc(-c3cc(S(=O)(=O)NC45COC(CO)(C4)C5)ccc3C)cnc2N)s1 [Example 4, 3-(5-Amino-6-(2-methylthiazol-5-yl)pyrazin-2-yl)-N-(1-(hydroxymethyl)-2-oxabicyclo[2.1.1]hexan-4-yl)-4-methylbenzenesulfonamide trifluoroacetate salt]",≤ 0.1,≤ 0.1,≤ 0.1
"Cc1ccc(S(=O)(=O)NC23CCC(C#N)(C2)C3)cc1-c1cnc(N)c(-c2cn(C)nc2C)c1 [Example 82, 3-(6-Amino-5-(1,3-dimethyl-1H-pyrazol-4-yl)pyridin-3-yl)-N-(4-cyanobicyclo[2.1.1]hexan-1-yl)-4-methylbenzenesulfonamide]",≤ 0.1,≤ 0.5,≤ 1
"Cc1ncc(-c2nc(-c3cc(S(=O)(=O)NC45CC(C#N)(C4)C5)ccc3C)cnc2N)s1 [Example 1, 3-(5-Amino-6-(2-methylthiazol-5-yl)pyrazin-2-yl)-N-(3-cyanobicyclo[1.1.1]pentan-1-yl)-4-methylbenzenesulfonamide Trifluoroacetate Salt]",≤ 0.1,≤ 0.1,≤ 0.1
"[2H]C([2H])([2H])c1ccc(S(=O)(=O)NC23CCN(CC2)C3)cc1-c1cnc(N)c(-c2cnco2)n1 [Example 94, 3-(5-amino-6-(oxazol-5-yl)pyrazin-2-yl)-N-(1-azabicyclo[2.2.1]heptan-4-yl)-4-(methyl-d3)benzenesulfonamide]",≤ 0.1,≤ 0.5,≤ 0.1
"[2H]C([2H])([2H])c1ccc(S(=O)(=O)NC23CC(C#N)(C2)C3)cc1-c1cnc(N)c(-n2cncn2)n1 [Example 48, 3-(5-Amino-6-(1H-1,2,4-triazol-1-yl)pyrazin-2-yl)-N-(3-cyanobicyclo[1.1.1]pentan-1-yl)-4-(methyl-d3)benzenesulfonamide Trifluoroacetate Salt]",≤ 0.1,≤ 0.5,≤ 0.1
"Cc1ccc(S(=O)(=O)NC23CC(CO)(C2)C3)cc1-c1cnc(N)c(-n2cncn2)n1 [Example 24, 3-(5-Amino-6-(1H-1,2,4-triazol-1-yl)pyrazin-2-yl)-N-(3-(hydroxymethyl)bicyclo[1.1.1]pentan-1-yl)-4-methylbenzenesulfonamide trifluoroacetate salt]",≤ 0.1,≤ 0.5,≤ 0.1
"[2H]C([2H])([2H])c1ccc(S(=O)(=O)NC23CCC(O)(C2)C3)cc1-c1cnc(N)c(-c2ccnc(SC)n2)n1 [Example 77, 3-(5-Amino-6-(2-(methylthio)pyrimidin-4-yl)pyrazin-2-yl)-N-(4-hydroxybicyclo[2.1.1]hexan-1-yl)-4-(methyl-d3)benzenesulfonamide]",≤ 0.1,≤ 0.1,≤ 0.1
"Cc1ccc(S(=O)(=O)NC23CCC(C#N)(C2)C3)cc1-c1cnc(N)c(-c2cn(C)nc2C)n1 [Example 11, 3-(5-Amino-6-(1,3-dimethyl-1H-pyrazol-4-yl)pyrazin-2-yl)-N-(4-cyanobicyclo[2.1.1]hexan-1-yl)-4-methylbenzensulfonamide trifluoroacetate salt]",≤ 0.1,≤ 0.5,≤ 0.5
"Cc1ccc(S(=O)(=O)NC23CCC(CO)(C2)C3)cc1-c1cnc(N)c(-c2cn(C)nc2C)n1 [Example 13, 3-(5-Amino-6-(1,3-dimethyl-1H-pyrazol-4-yl)pyrazin-2-yl)-N-(4-(hydroxymethyl)bicyclo[2.1.1]hexan-1-yl)-4-methylbenzenesulfonamide trifluoroacetate salt]",≤ 0.1,≤ 0.5,≤ 0.5
"Cc1ccc(S(=O)(=O)NC23COC(C)(C2)C3)cc1-c1cnc(N)c(-c2cn(C)nc2C)n1 [Example 12, 3-(5-Amino-6-(1,3-dimethyl-1H-pyrazol-4-yl)pyrazin-2-yl)-4-methyl-N-(1-methyl-2-oxabicyclo[2.1.1]hexan-4-yl)benzenesulfonamide trifluoroacetate salt]",≤ 0.1,≤ 0.5,≤ 0.5
"[2H]C([2H])([2H])c1ccc(S(=O)(=O)NC23CC(C#N)(C2)C3)cc1-c1cnc(N)c(-c2cnco2)n1 [Example 73, 3-(5-Amino-6-(oxazol-5-yl)pyrazin-2-yl)-N-(3-cyanobicyclo[1.1.1]pentan-1-yl)-4-(methyl-d3)benzenesulfonamide trifluoroacetate salt]",≤ 0.1,≤ 0.1,≤ 0.1
"[2H]C([2H])([2H])c1ccc(S(=O)(=O)NC23COC(CO)(C2)C3)cc1-c1cnc(N)c(-c2cnc(C3CC3)s2)n1 [Example 61, 3-(5-Amino-6-(2-cyclopropylthiazol-5-yl)pyrazin-2-yl)-N-(1-(hydroxymethyl)-2-oxabicyclo[2.1.1]hexan-4-yl)-4-(methyl-d3)benzenesulfonamide Trifluoroacetate Salt]",≤ 0.1,≤ 0.1,≤ 0.1
"Cc1ccc(S(=O)(=O)NC23CCC(CO)(CC2)OC3)cc1-c1cnc(N)c(-c2ccnc(C(F)(F)F)c2)n1 [Example 21, 3-(5-Amino-6-(2-(trifluoromethyl)pyridin-4-yl)pyrazin-2-yl)-N-(1-(hydroxymethyl)-2-oxabicyclo[2.2.2]octan-4-yl)-4-methylbenzenesulfonamide trifluoroacetate salt]",≤ 0.1,≤ 0.5,≤ 0.5
"Cc1ccc(S(=O)(=O)NC23CCC(CO)(CC2)OC3)cc1-c1cnc(N)c(-c2ccnc(C#N)c2)n1 [Example 19, 3-(5-Amino-6-(2-cyanopyridin-4-yl)pyrazin-2-yl)-N-(1-(hydroxymethyl)-2-oxabicyclo[2.2.2]octan-4-yl)-4-methylbenzenesulfonamide trifluoroacetate salt]",≤ 0.1,≤ 0.1,≤ 1
"[2H]C([2H])([2H])c1ccc(S(=O)(=O)NC23CCN(CC2)C3)cc1-c1cnc(N)c(-n2cncn2)n1 [Example 90, 3-(5-amino-6-(1H-1,2,4-triazol-1-yl)pyrazin-2-yl)-N-(1-azabicyclo[2.2.1]heptan-4-yl)-4-(methyl-d3)benzenesulfonamide]",≤ 0.1,≤ 0.1,≤ 0.1
